The source made the active and inactive calls. No cut-off for these calls is given here.
Assays:
[1] = target: Histamine H1 receptor (Homo sapiens) (UniProt P35367); details: Compound concentration 10.0 uM
[2] = target: 5-hydroxytryptamine receptor 2C (Homo sapiens) (UniProt P28335); details: Compound concentration 10.0 uM
[3] = target: Alpha-1D adrenergic receptor (Homo sapiens) (UniProt P25100); details: Compound concentration 10.0 uM
Rattus norvegicus = species: Rattus norvegicus; details: Compound concentration 10.0 uM
[4] = target: Histamine H2 receptor (Homo sapiens) (UniProt P25021); details: Compound concentration 10.0 uM
[5] = target: 5-hydroxytryptamine receptor 2B (Homo sapiens) (UniProt P41595); details: Compound concentration 10.0 uM
[6] = target: Muscarinic acetylcholine receptor M1 (Homo sapiens) (UniProt P11229); details: Compound concentration 10.0 uM
[7] = target: 5-hydroxytryptamine receptor 1A (Homo sapiens) (UniProt P08908); details: Compound concentration 10.0 uM
[8] = target: 5-hydroxytryptamine receptor 5A (Homo sapiens) (UniProt P47898); details: Compound concentration 10.0 uM
[9] = target: 5-hydroxytryptamine receptor 1D (Homo sapiens) (UniProt P28221); details: Compound concentration 10.0 uM
[10] = target: Alpha-1B adrenergic receptor (Homo sapiens) (UniProt P35368); details: Compound concentration 10.0 uM
[11] = target: Kappa-type opioid receptor (Homo sapiens) (UniProt P41145); details: Compound concentration 10.0 uM
[12] = target: Alpha-2C adrenergic receptor (Homo sapiens) (UniProt P18825); details: Compound concentration 10.0 uM
[13] = target: Mu-type opioid receptor (Homo sapiens) (UniProt P35372); details: Compound concentration 10.0 uM
Chain of Mu-type opioid receptor (Homo sapiens) (P35372 whole entry): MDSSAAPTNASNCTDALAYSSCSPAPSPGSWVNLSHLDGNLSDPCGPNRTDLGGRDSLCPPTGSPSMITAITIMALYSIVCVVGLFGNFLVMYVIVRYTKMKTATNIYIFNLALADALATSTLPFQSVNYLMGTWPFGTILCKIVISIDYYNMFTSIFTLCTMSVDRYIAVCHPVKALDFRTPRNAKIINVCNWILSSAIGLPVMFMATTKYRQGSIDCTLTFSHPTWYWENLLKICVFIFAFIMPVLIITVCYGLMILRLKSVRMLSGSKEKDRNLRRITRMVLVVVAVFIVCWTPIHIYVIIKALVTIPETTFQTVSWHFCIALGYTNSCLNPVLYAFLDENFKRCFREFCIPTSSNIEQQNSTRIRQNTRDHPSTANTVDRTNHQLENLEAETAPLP

[14] = target: 5-hydroxytryptamine receptor 3A (Homo sapiens) (UniProt P46098); details: Compound concentration 10.0 uM
[15] = target: Muscarinic acetylcholine receptor M5 (Homo sapiens) (UniProt P08912); details: Compound concentration 10.0 uM
[16] = target: T1, GABA-A receptor; anion channel (Rattus norvegicus) (UniProt O09028+P15431+P18506+P18508+P19969+P20236+P23574+P23576+P28471+P28473+P30191+P62813+P63079+P63138+Q91ZM7+Q9ES14); details: Compound concentration 10.0 uM
[17] = target: Sodium-dependent serotonin transporter (Homo sapiens) (UniProt P31645); details: Compound concentration 10.0 uM
[18] = target: Alpha-2A adrenergic receptor (Homo sapiens, UniProt P08913); test: GPCRScan assay: inhibition of Alpha2A; design: radioligand conc. used [nm] 1.0 – 3.0, parental cells stable MDCK
[19] = target: Beta-2 adrenergic receptor (Homo sapiens) (UniProt P07550); details: Compound concentration 10.0 uM
[20] = target: T2, Sodium-dependent dopamine transporter (Homo sapiens, UniProt Q01959); details: Compound concentration 10.0 uM
T2 sequence (Q01959 whole entry): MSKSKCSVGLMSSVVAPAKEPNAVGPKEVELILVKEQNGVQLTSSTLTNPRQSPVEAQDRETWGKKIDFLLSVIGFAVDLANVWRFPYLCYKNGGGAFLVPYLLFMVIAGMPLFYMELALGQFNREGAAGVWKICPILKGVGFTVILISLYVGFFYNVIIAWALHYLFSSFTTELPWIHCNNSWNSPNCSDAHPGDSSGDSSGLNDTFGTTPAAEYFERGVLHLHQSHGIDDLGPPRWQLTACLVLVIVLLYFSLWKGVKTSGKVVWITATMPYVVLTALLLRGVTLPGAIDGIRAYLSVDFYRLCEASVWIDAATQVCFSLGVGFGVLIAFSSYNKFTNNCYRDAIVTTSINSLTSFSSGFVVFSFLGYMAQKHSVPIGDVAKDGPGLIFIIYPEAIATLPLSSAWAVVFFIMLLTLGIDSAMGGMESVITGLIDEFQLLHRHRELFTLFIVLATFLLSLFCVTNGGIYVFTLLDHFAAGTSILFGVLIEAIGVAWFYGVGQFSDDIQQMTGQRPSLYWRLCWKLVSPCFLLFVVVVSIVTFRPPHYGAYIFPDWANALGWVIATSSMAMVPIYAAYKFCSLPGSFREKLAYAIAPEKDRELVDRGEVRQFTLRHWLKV

[21] = target: Delta-type opioid receptor (Homo sapiens) (UniProt P41143); details: Compound concentration 10.0 uM
Chain of Delta-type opioid receptor (Homo sapiens) (P41143 whole entry): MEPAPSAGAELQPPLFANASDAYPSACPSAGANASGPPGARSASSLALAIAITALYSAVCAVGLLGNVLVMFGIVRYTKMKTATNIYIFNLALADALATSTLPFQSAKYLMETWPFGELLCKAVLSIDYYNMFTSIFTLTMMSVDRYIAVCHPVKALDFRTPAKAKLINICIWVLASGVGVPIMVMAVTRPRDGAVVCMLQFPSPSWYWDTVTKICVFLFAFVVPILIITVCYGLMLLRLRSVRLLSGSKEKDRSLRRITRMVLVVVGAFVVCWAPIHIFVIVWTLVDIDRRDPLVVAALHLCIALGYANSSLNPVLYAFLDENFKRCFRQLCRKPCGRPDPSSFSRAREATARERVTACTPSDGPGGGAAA

[22] = target: Histamine H3 receptor (Homo sapiens) (UniProt Q9Y5N1); details: Compound concentration 10.0 uM
[23] = target: 5-hydroxytryptamine receptor 6 (Homo sapiens) (UniProt P50406); details: Compound concentration 10.0 uM
[24] = target: Sodium-dependent noradrenaline transporter (Homo sapiens) (UniProt P23975); details: Compound concentration 10.0 uM
Chain of Sodium-dependent noradrenaline transporter (Homo sapiens) (P23975 whole entry): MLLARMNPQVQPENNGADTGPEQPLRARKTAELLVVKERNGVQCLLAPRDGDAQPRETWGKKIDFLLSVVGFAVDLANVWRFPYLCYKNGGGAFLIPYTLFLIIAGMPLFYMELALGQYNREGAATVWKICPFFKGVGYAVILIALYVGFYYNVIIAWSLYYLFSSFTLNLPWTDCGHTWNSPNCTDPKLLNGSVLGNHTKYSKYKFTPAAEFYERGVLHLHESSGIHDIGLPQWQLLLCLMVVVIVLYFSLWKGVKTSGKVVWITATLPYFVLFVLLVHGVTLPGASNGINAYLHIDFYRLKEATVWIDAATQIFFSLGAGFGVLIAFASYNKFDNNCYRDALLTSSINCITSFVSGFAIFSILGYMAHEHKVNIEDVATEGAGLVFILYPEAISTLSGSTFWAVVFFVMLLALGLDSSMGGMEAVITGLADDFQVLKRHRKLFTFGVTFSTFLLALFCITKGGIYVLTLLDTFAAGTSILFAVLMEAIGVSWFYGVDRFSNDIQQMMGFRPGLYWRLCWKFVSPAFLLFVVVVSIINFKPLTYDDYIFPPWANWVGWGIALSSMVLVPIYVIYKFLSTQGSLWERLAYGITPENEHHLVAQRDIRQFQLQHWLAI

[25] = target: Alpha-1A adrenergic receptor (Homo sapiens) (UniProt P35348); details: Compound concentration 10.0 uM
[26] = target: Alpha-2B adrenergic receptor (Homo sapiens) (UniProt P18089); details: Compound concentration 10.0 uM
Chain of Alpha-2B adrenergic receptor (Homo sapiens) (P18089 whole entry): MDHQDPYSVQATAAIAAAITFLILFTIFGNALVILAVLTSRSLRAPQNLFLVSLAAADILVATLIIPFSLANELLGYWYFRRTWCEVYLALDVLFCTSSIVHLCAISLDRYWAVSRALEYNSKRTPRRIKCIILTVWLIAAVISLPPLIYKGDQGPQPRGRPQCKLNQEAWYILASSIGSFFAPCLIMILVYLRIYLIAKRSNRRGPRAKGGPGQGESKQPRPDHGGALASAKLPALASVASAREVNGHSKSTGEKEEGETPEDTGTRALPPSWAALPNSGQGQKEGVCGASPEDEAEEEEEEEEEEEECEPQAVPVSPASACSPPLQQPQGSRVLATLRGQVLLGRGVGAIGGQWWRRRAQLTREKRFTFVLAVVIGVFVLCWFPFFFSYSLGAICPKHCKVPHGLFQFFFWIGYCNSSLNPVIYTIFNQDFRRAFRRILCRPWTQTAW

[27] = target: 5-hydroxytryptamine receptor 7 (Homo sapiens) (UniProt P34969); details: Compound concentration 10.0 uM
Chain of 5-hydroxytryptamine receptor 7 (Homo sapiens) (P34969 whole entry): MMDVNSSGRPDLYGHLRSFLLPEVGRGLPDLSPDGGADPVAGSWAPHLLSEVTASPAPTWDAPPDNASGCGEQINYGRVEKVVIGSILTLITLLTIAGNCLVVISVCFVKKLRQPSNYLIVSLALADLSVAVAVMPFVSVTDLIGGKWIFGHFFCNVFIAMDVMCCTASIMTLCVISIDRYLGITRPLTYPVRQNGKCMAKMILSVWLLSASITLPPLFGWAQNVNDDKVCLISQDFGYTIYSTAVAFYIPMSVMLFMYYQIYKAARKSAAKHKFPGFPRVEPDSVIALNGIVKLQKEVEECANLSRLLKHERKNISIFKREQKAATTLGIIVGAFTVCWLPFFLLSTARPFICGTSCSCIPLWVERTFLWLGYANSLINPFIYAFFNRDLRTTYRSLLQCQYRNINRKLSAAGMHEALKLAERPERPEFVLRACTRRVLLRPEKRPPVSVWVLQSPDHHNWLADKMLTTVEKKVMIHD

[28] = target: D(4) dopamine receptor (Homo sapiens) (UniProt P21917); details: Compound concentration 10.0 uM
[29] = target: T2, Sodium-dependent dopamine transporter; test: GPCRScan assay: inhibition of DAT; design: radioligand conc. used [nm] 3.6 – 16.0, parental cells stable HEK
[30] = target: 5-hydroxytryptamine receptor 1B (Homo sapiens) (UniProt P28222); details: Compound concentration 10.0 uM
[31] = target: T3, Sigma non-opioid intracellular receptor 1 (Homo sapiens, UniProt Q99720); details: Compound concentration 10.0 uM
T3 sequence (Q99720 whole entry): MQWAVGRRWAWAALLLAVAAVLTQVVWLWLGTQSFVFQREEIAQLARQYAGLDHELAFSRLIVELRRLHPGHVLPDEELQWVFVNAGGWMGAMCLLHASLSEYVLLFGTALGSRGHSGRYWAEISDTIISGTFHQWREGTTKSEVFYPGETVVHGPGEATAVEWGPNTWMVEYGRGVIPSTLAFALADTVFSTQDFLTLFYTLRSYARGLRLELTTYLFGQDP

[32] = target: 5-hydroxytryptamine receptor 2A (Homo sapiens) (UniProt P28223); details: Compound concentration 10.0 uM
[33] = target: Muscarinic acetylcholine receptor M3 (Homo sapiens) (UniProt P20309); details: Compound concentration 10.0 uM
Chain of Muscarinic acetylcholine receptor M3 (Homo sapiens) (P20309 whole entry, looked up): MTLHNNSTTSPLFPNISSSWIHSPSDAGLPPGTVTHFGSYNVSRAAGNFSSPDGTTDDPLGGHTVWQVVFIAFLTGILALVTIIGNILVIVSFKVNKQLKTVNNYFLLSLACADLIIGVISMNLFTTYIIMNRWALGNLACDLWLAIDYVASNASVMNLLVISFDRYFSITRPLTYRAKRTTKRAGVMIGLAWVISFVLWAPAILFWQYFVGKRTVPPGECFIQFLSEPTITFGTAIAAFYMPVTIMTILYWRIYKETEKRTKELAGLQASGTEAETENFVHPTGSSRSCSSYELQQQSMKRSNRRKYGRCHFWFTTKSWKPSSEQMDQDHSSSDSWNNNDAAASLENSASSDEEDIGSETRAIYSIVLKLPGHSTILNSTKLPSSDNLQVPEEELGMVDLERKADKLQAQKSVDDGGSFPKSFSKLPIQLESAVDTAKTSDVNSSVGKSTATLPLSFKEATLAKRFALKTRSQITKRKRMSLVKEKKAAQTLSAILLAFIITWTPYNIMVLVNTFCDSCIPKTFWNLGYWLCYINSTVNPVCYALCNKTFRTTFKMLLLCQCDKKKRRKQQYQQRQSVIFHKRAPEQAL

[34] = target: Beta-1 adrenergic receptor (Homo sapiens) (UniProt P08588); details: Compound concentration 10.0 uM
[35] = target: D(2) dopamine receptor (Homo sapiens) (UniProt P14416); details: Compound concentration 10.0 uM
[36] = target: Muscarinic acetylcholine receptor M4 (Homo sapiens) (UniProt P08173); details: Compound concentration 10.0 uM
Chain of Muscarinic acetylcholine receptor M4 (Homo sapiens) (P08173 whole entry): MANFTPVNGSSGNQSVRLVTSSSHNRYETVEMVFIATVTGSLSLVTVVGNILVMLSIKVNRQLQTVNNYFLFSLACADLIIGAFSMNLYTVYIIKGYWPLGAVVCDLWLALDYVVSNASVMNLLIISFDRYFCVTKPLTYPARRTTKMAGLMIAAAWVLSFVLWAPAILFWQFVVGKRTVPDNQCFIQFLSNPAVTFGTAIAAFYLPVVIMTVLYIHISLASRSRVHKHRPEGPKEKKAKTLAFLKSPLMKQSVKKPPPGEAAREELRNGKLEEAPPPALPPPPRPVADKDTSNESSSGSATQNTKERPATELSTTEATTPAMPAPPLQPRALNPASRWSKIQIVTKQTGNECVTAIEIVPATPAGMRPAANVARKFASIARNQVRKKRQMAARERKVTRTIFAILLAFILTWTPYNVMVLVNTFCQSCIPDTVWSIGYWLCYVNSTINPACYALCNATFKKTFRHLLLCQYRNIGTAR

[37] = target: 5-hydroxytryptamine receptor 1E (Homo sapiens) (UniProt P28566); details: Compound concentration 10.0 uM
[38] = target: Ubiquitin carboxyl-terminal hydrolase isozyme L1 (Homo sapiens, UniProt P09936); test: UCHL1 inhibition assay with Ub-Rho-morpholine as substrate
Chain of Ubiquitin carboxyl-terminal hydrolase isozyme L1 (P09936 whole entry): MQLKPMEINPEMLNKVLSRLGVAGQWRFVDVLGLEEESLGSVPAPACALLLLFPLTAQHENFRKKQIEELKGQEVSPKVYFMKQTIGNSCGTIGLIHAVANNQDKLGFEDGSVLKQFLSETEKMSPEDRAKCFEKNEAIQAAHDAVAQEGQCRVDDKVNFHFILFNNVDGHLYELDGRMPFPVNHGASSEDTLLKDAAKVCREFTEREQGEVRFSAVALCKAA

[39] = target: D(1A) dopamine receptor (Homo sapiens) (UniProt P21728); details: Compound concentration 10.0 uM
[40] = target: Alpha-2A adrenergic receptor (Homo sapiens) (UniProt P08913); details: Compound concentration 10.0 uM
[41] = target: T1, GABA-A receptor; anion channel (Rattus norvegicus); details: Compound concentration 10.0 uM; remark: listed apart in the source
[42] = target: Muscarinic acetylcholine receptor M2 (Homo sapiens) (UniProt P08172); details: Compound concentration 10.0 uM
[43] = target: T3, Sigma non-opioid intracellular receptor 1; test: GPCRScan assay: inhibition of Sigma 1; design: radioligand conc. used [nm] 4.0 – 5.0, parental cells HEKT
[44] = target: Beta-3 adrenergic receptor (Homo sapiens) (UniProt P13945); details: Compound concentration 10.0 uM
[45] = target: Histamine H4 receptor (Homo sapiens) (UniProt Q9H3N8); details: Compound concentration 10.0 uM
[46] = target: D(1B) dopamine receptor (Homo sapiens) (UniProt P21918); details: Compound concentration 10.0 uM
[47] = target: Ubiquitin carboxyl-terminal hydrolase isozyme L1 (Homo sapiens) (UniProt P09936); test: UCHL1 activity based protein profiling assay (ABPP)
Chain of Ubiquitin carboxyl-terminal hydrolase isozyme L1 (Homo sapiens) (P09936 whole entry, looked up): as the sequence (P09936 whole entry) above

[48] = target: Mitogen-activated protein kinase 14 (Homo sapiens, UniProt Q16539); test: NanoBRET (SGC Frankfurt) (MAPK14)
[49] = target: Sigma intracellular receptor 2 (Homo sapiens) (UniProt Q5BJF2); details: Compound concentration 10.0 uM
[50] = target: D(3) dopamine receptor (Homo sapiens) (UniProt P35462); details: Compound concentration 10.0 uM

Chain of 5-hydroxytryptamine receptor 2C (Homo sapiens) (P28335 whole entry): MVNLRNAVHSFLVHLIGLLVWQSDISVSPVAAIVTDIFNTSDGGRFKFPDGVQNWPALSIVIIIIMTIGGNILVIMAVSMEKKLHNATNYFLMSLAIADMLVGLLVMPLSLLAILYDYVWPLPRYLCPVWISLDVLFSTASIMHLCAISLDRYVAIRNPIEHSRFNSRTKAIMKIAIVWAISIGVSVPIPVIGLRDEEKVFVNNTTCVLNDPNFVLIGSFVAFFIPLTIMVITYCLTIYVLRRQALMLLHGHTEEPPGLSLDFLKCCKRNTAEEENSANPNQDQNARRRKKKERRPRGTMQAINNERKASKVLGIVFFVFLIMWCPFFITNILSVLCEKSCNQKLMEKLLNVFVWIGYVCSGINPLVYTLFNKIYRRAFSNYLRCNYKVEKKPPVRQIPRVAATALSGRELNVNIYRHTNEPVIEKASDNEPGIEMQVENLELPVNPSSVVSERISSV

`N#CN1CC[C@@H](C(=O)Nc2nc3c(s2)CN(C(=O)CN=[N+]=[N-])CC3)C1` [JYQ88] was tested, and the inhibition [1] was 0.43%, the inhibition [2] was 6.22% and the inhibition [3] was 0.34%. For the same compound, the inhibition (Rattus norvegicus) was 5.64%, the inhibition [4] was 3.43% and the inhibition [5] was 5.55%. For the same compound, the inhibition [6] was 24.4%, the inhibition [7] was 12.1% and the inhibition [8] was 9.64%. For the same compound, the inhibition [9] was 20.9%, the inhibition [10] was -7.5% and the inhibition [11] was 13.3%. The inhibition [12] was 4.21%, the inhibition [13] was 18.7% and the inhibition [14] was 0.95%. For the same compound, the inhibition [15] was 2.94%, the inhibition [16] was 34.2% and the inhibition [17] was 7.66%. For the same compound, the Ki [18] was > 10 µM, the pKi [18] was < 5 and the inhibition [19] was -8.12%. For the same compound, the inhibition [20] was 83%, the inhibition [21] was 4.07% and the inhibition [22] was -2.11%. It also gave an inhibition [23] of 8.14%, an inhibition [24] of 3.51% and an inhibition [25] of 3.73%. For the same compound, the inhibition [26] was 6.46%, the inhibition [27] was -1.05% and the inhibition [28] was 5.53%. The Ki [29] was > 10 µM, the pKi [29] was < 5 and the inhibition [30] was 6.13%. It also gave an inhibition [31] of 6.56%, an inhibition [32] of 3.66% and an inhibition [33] of -2.15%. For the same compound, the inhibition [34] was 3.17%, the inhibition [35] was 4.82% and the inhibition [36] was -1.43%. For the same compound, the inhibition [37] was 6.5%, the IC50 [38] was 12.9 µM (not active) and the inhibition [39] was 8.27%. The inhibition [40] was 50.7% and the inhibition [41] was 28.7%.
`N#CN1CC[C@H](C(=O)Nc2nc3c(s2)CN(C(=O)CN=[N+]=[N-])CC3)C1` [8RK64] was tested, and the inhibition [1] was 7.45%, the inhibition [42] was -0.45% and the inhibition [2] was 18.2%. It also gave an inhibition [3] of 12.2%, an inhibition (Rattus norvegicus) of 21.9% and a Ki ([43]; read-out: Ki) of 3.43 µM. It also gave a Ki ([43]; read-out: pKi (converted)) of 3.39 µM, an inhibition [4] of 0.58% and an inhibition [5] of 5.22%. The inhibition [44] was -3.31%, the inhibition [6] was 7.58% and the inhibition [7] was 7.61%. The inhibition [45] was 5.77%, the inhibition [8] was 11.8% and the inhibition [9] was -0.37%. The inhibition [11] was 0.19%, the inhibition [12] was 14.7% and the inhibition [13] was 12.6%. The inhibition [14] was 2.31%, the inhibition [16] was -1.06% and the inhibition [17] was 2.49%. It also gave an inhibition [46] of 7.55%, a Full inhibition [47] of 3 µM and an inhibition [19] of -0.7%. For the same compound, the inhibition [20] was -2.33%, the IC50 [48] was 0.32 µM (active) and the inhibition [21] was 8.43%. The inhibition [22] was -5.98%, the inhibition [23] was 9.94% and the inhibition [24] was 2.61%. For the same compound, the inhibition [25] was 11.2%, the inhibition [26] was -1.02% and the inhibition [27] was -0.16%. It also gave an inhibition [28] of 4.26%, an inhibition [30] of 1.57% and an inhibition [49] of -1.19%. It also gave an inhibition [31] of 69%, an inhibition [32] of 30% and an inhibition [33] of -1.04%. It also gave an inhibition [34] of -7.19%, an inhibition [35] of 0.55% and an inhibition [36] of 4.84%. It also gave an inhibition [37] of 2.35%, an inhibition [50] of -2.14% and an inhibition [41] of -2.35%.
